Where “and” joins values, the source holds several entries; their conditions need not be identical. Equal entries are not always repeated. Structures can show the parent of a compound that is named as a salt. Where two headings read alike, the source gives them in different places.
Tests used:
[1] = Solubility tests of nitroxoline and nitroxoline salts in aqueous buffers and water; format: physicochemical; settings: for solubility at 30 min: thermodynamic from solid; for solubility at a physiologically relevant pH: pH of 4.5 to 8, in contrast to nitroxoline and acid addition salts
Protocol: 1) Aqueous buffer solutions with varying pH were prepared as follows: • i. Water: distilled water; • ii. pH=1.2 buffer: 7.65 mL 36.5% HCl solution was diluted to 1000 mL with water; • iii. pH=4.5 buffer: 18 g sodium acetate and 9.8 mL acetic acid were diluted to 1000 mL with water; • iv. pH=5.0 buffer: sodium hydroxide was added to 0.2 mol/L monosodium phosphate (NaH2PO4) solution until the pH was adjusted to 5.0; • v. pH=6.0 buffer: 18 g sodium acetate were added into 20 mL acetic acid solution (1 M), and the mixture was diluted to 500 mL with water; • vi. pH=6.8 buffer: 250 mL of 0.2 M monopotassium phosphate (KH2PO4) solution were added to 118 mL of 0.2 M sodium hydroxide solution, and the mixture was diluted to 1000 mL with water; • vii. pH=7.4 buffer: 1.36 g monopotassium phosphate (KH2PO4) were added to 79 mL of 0.1 M sodium hydroxide solution, and the mixture was diluted to 200 mL with water; and • viii pH=8.0 buffer: 5.59 g potassium biphosphate (K2HPO4) and 0.41 g monopotassium. phosphate (KH2PO4) were added to 1000 mL water and mixed.
2) Solubility tests were performed generally as follows:
Under a temperature of 25±2° C., 10 mg of each salt sample was weighed and added to a 100 mL volumetric bottle. 0.25 mL buffer was added to the bottle, which was shaken vigorously for 30 seconds every 5 min.
If the sample was not completely dissolved, 0.7 mL of the same buffer was added, and dissolution was observed by the same shaking procedure.
If the sample was not completely dissolved, 8.5 mL of the same buffer was added, and dissolution was observed by the same shaking procedure.
If the sample was not completely dissolved, 85 mL of the same buffer was added, and dissolution was observed by the same shaking procedure.

[2] = In vivo urinary excretion of nitroxoline and nitroxoline salts in beagle dogs
Protocol: Urine samples were collected in the following periods of time: 0-2, 2-4, 4-6, 6-8, 8-24 h. Urine samples were analyzed by LC/MS/MS method utilizing an Agilent 1100 HPLC system with a CTC auto-sampler, an AB API4000 mass spectrometer, and a column of ACQUITY UPLC BEH C18 (2.1*50 mm) Dexamethasone was used as an internal standard. […] The range of linearity was determined to be 25˜5000 ng/mL.
(§1) The same study was repeated with APL-1092, nitroxoline lysine salt.

[3] = In vivo urinary excretion of nitroxoline and nitroxoline salts in mice; set-up: species or system CD-1 ICR mice
Protocol: Urine samples were collected in the following periods of time: 0-2, 2-6, 6-24 h. Due to the small volume of the urine from mice, the collecting system in the cage was washed with water at each collecting time. Urine samples and their wash samples were analyzed according to the same methods used in the beagle dog study (Example 24).
as §1

[4] = distilled water, 25 °C, water, distilled water, 25±2° C., read-out: Solubility water
[5] = pH 1.2 buffer (dilute HCl), 25 °C, pH 1.2, simulated gastric fluid, pH=1.2 buffer, 25±2° C., read-out: Solubility pH 1.2
[6] = pH 4.5 acetate buffer, 25 °C, pH 4.5, aqueous buffer, pH=4.5 buffer, 25±2° C., read-out: Solubility pH 4.5
[7] = pH 5.0 phosphate buffer, 25 °C, pH 5, aqueous buffer, pH=5.0 buffer, 25±2° C., read-out: Solubility pH 5
[8] = pH 6.0 acetate buffer, 25 °C, pH 6, aqueous buffer, pH=6.0 buffer, 25±2° C., read-out: Solubility pH 6
[9] = pH 6.8 phosphate buffer, 25 °C, pH 6.8, aqueous buffer, pH=6.8 buffer, 25±2° C., read-out: Solubility pH 6.8
[10] = pH 7.4 phosphate buffer, 25 °C, pH 7.4, aqueous buffer, buffer headed 'pH .4', 25±2° C., read-out: Solubility pH .4
[11] = pH 8.0 phosphate buffer, 25 °C, pH 8, aqueous buffer, pH=8.0 buffer, 25±2° C., read-out: Solubility pH 8.0

With `Cl.O=[N+]([O-])c1ccc(O)c2ncccc12` [APL-1071, Nitroxoline HCl Salt] the solubility at 30 min ([1]; aqueous buffers pH 1.2 to 8, 25 °C, pH 1.2, aqueous buffer, all pHs tested, from pH 1.2 to 8, read-out: solubility at all pHs tested) was less than 100 µg/mL, the solubility at 30 min [1, 4] was less than 100 µg/mL and the solubility at 30 min [1, 5] was less than 100 µg/mL. For the same molecule, the solubility at 30 min [1, 6] was less than 100 µg/mL, the solubility at 30 min [1, 7] was less than 100 µg/mL and the solubility at 30 min [1, 8] was less than 100 µg/mL. The solubility at 30 min [1, 9] was less than 100 µg/mL, the solubility at 30 min [1, 10] was less than 100 µg/mL and the solubility at 30 min [1, 11] was less than 100 µg/mL.

In the case of `O=[N+]([O-])c1ccc(O)c2ncccc12` [APL-1075, Nitroxoline HNO3 Salt], the solubility at 30 min [1, 6] is reported as less than 100 µg/mL, the solubility at 30 min [1, 7] is reported as less than 100 µg/mL and the solubility at 30 min [1, 8] is reported as less than 100 µg/mL. For the same molecule, the solubility at 30 min [1, 9] was less than 100 µg/mL.

With `O=[N+]([O-])c1ccc(O)c2ncccc12` [APL-1092, Nitroxoline Lysine Salt] the “24-Hr Accumulated drug in the urine” value ([2]; In Dogs, 75 mg APL-1202 or equivalent amount) was 617 µg, the “increase in drug excretion in the urine as compared to nitroxoline” value ([2]; beagle dogs, dosed at the equivalent amount of nitroxoline in moles) was “more than five times” and the “f (%): percentage of total mass of excreted drug versus the dose amount” value ([2]; individual dogs, oral tablet, 75 mg nitroxoline equivalent) was 1.1% and 0.419% and 0.949%. The “Total mass of nitroxoline in urine” value ([2]; individual dogs, oral tablet, 75 mg nitroxoline equivalent, 0-24 hr) was 825000 ng and 313943 ng and 711720 ng, the “Mass of nitroxoline in urine, 0-2 hr” value ([2]; individual dogs, oral tablet, 75 mg nitroxoline equivalent, collection 0-2 hr) was 0 ng and 15153 ng and 163020 ng and the “Mass of nitroxoline in urine, 2-4 hr” value ([2]; individual dogs, oral tablet, 75 mg nitroxoline equivalent, collection 2-4 hr) was 0 ng and 130150 ng and 219300 ng. The “Mass of nitroxoline in urine, 4-6 hr” value ([2]; individual dogs, oral tablet, 75 mg nitroxoline equivalent, collection 4-6 hr) was 0 ng (2×) and 96900 ng, the “Mass of nitroxoline in urine, 6-8 hr” value ([2]; individual dogs, oral tablet, 75 mg nitroxoline equivalent, collection 6-8 hr) was 0 ng (2×) and 22165 ng and the “Mass of nitroxoline in urine, 8-24 hr” value ([2]; individual dogs, oral tablet, 75 mg nitroxoline equivalent, collection 8-24 hr) was 825000 ng and 49575 ng and 329400 ng. The “f (%): percentage of total mass of excreted drug versus the dose amount, Mean” value ([2]; mean of dogs, oral tablet, 75 mg nitroxoline equivalent) was 0.823%, the “Total mass of nitroxoline in urine, Mean” value ([2]; mean of dogs, oral tablet, 75 mg nitroxoline equivalent, 0-24 hr) was 616888 ng and the “Mass of nitroxoline in urine, 0-2 hr, Mean” value ([2]; mean of dogs, oral tablet, 75 mg nitroxoline equivalent, collection 0-2 hr) was 89086 ng. The “Mass of nitroxoline in urine, 2-4 hr, Mean” value ([2]; mean of dogs, oral tablet, 75 mg nitroxoline equivalent, collection 2-4 hr) was 174725 ng, the “Mass of nitroxoline in urine, 4-6 hr, Mean” value ([2]; mean of dogs, oral tablet, 75 mg nitroxoline equivalent, collection 4-6 hr) was 96900 ng and the “Mass of nitroxoline in urine, 6-8 hr, Mean” value ([2]; mean of dogs, oral tablet, 75 mg nitroxoline equivalent, collection 6-8 hr) was 22165 ng. For the same molecule, the “Mass of nitroxoline in urine, 8-24 hr, Mean” value ([2]; mean of dogs, oral tablet, 75 mg nitroxoline equivalent, collection 8-24 hr) was 401325 ng, the “24-Hr Accumulated drug in the urine” value ([3]; In Mice, 41.8 mg/Kg APL-1202 or equivalent dose, 41.8 mg/kg) was 139 µg and the “Total mass of nitroxoline in urine and wash” value ([3]; individual mice, oral, equivalent of 41.8 mg/Kg nitroxoline, 0-24 hr, 41.8 mg/kg) was 174297 ng and 118681 ng and 56516 ng and 155110 ng and 87439 ng and 143396 ng. The “f (%): percentage of total mass of excreted drug versus the dose amount” value ([3]; individual mice, oral, equivalent of 41.8 mg/Kg nitroxoline, 41.8 mg/kg) was 34.7% and 22.3% and 11.1% and 28.4% and 17.7% and 19.8%, the “Mass of nitroxoline, 0~2 wash” value ([3]; individual mice, oral, equivalent of 41.8 mg/Kg nitroxoline, cage wash 0~2 hr, 41.8 mg/kg) was 113000 ng and 25240 ng and 15015 ng and 25300 ng and 47650 ng and 19320 ng and the “Mass of nitroxoline, 2~6 wash” value ([3]; individual mice, oral, equivalent of 41.8 mg/Kg nitroxoline, cage wash 2~6 hr, 41.8 mg/kg) was 6055 ng and 3618 ng and 8190 ng and 4635 ng and 4868 ng and 1960 ng. For the same molecule, the “Mass of nitroxoline, 6~24 wash” value ([3]; individual mice, oral, equivalent of 41.8 mg/Kg nitroxoline, cage wash 6~24 hr, 41.8 mg/kg) was 296 ng and 158 ng and 246 ng and 286 ng and 227 ng and 190 ng, the “Mass of nitroxoline in urine, 0-2 hr” value ([3]; individual mice, oral, equivalent of 41.8 mg/Kg nitroxoline, urine 0-2 hr, 41.8 mg/kg) was 51600 ng and 84300 ng and 31970 ng and 107380 ng and 31122 ng and 120000 ng and the “Mass of nitroxoline in urine, 2-6 hr” value ([3]; individual mice, oral, equivalent of 41.8 mg/Kg nitroxoline, urine 2-6 hr, 41.8 mg/kg) was 3308.5 ng and 5263.2 ng and 1084 ng and 17458 ng and 3500 ng and 1846 ng. For the same molecule, the “Mass of nitroxoline in urine, 6-24 hr” value ([3]; individual mice, oral, equivalent of 41.8 mg/Kg nitroxoline, urine 6-24 hr, 41.8 mg/kg) was 37.5 ng and 101.64 ng and 10.4 ng and 51 ng and 73 ng and 79.6 ng, the “Total mass of nitroxoline in urine and wash, Mean” value ([3]; mean of mice, oral, equivalent of 41.8 mg/Kg nitroxoline, 0-24 hr, 41.8 mg/kg) was 122573 ng and the “f (%): percentage of total mass of excreted drug versus the dose amount, Mean” value ([3]; mean of mice, oral, equivalent of 41.8 mg/Kg nitroxoline, 41.8 mg/kg) was 22.3%. For the same molecule, the “Mass of nitroxoline, 0~2 wash, Mean” value ([3]; mean of mice, oral, equivalent of 41.8 mg/Kg nitroxoline, cage wash 0~2 hr, 41.8 mg/kg) was 40921 ng, the “Mass of nitroxoline, 2~6 wash, Mean” value ([3]; mean of mice, oral, equivalent of 41.8 mg/Kg nitroxoline, cage wash 2~6 hr, 41.8 mg/kg) was 4888 ng and the “Mass of nitroxoline, 6~24 wash, Mean” value ([3]; mean of mice, oral, equivalent of 41.8 mg/Kg nitroxoline, cage wash 6~24 hr, 41.8 mg/kg) was 234 ng. For the same molecule, the “Mass of nitroxoline in urine, 0-2 hr, Mean” value ([3]; mean of mice, oral, equivalent of 41.8 mg/Kg nitroxoline, urine 0-2 hr, 41.8 mg/kg) was 71062 ng, the “Mass of nitroxoline in urine, 2-6 hr, Mean” value ([3]; mean of mice, oral, equivalent of 41.8 mg/Kg nitroxoline, urine 2-6 hr, 41.8 mg/kg) was 5410 ng and the “Mass of nitroxoline in urine, 6-24 hr, Mean” value ([3]; mean of mice, oral, equivalent of 41.8 mg/Kg nitroxoline, urine 6-24 hr, 41.8 mg/kg) was 58.8 ng. For the same molecule, the “increase of drug excretion in the urine as compared to nitroxoline” value ([3]; mice, dosed at the equivalent amount of nitroxoline in moles) was “approximately two times greater”.

`Br.O=[N+]([O-])c1ccc(O)c2ncccc12` [APL-1074, Nitroxoline HBr Salt] gave a solubility at 30 min [1, 4] of less than 100 µg/mL, a solubility at 30 min [1, 5] of 1000 to 10000 µg/mL and a solubility at 30 min [1, 6] of less than 100 µg/mL. It also gave a solubility at 30 min [1, 7] of less than 100 µg/mL, a solubility at 30 min [1, 8] of less than 100 µg/mL and a solubility at 30 min [1, 9] of less than 100 µg/mL. For the same molecule, the solubility at 30 min [1, 10] was less than 100 µg/mL and the solubility at 30 min [1, 11] was less than 100 µg/mL.

Work on `O=[N+]([O-])c1ccc([O-])c2ncccc12.[K+]` [APL-1077, Nitroxoline Potassium Salt] yielded a solubility at 30 min [1, 4] of 1000 to 10000 µg/mL, a solubility at 30 min [1, 5] of less than 100 µg/mL and a solubility at 30 min [1, 6] of less than 100 µg/mL. It also gave a solubility at 30 min [1, 7] of less than 100 µg/mL, a solubility at 30 min [1, 8] of less than 100 µg/mL and a solubility at 30 min [1, 9] of less than 100 µg/mL. For the same molecule, the solubility at 30 min [1, 10] was less than 100 µg/mL, the solubility at 30 min [1, 11] was 1000 to 10000 µg/mL and the “solubility at a physiologically relevant pH” value [1] was “significantly improved solubility”.

With `O=[N+]([O-])c1ccc([O-])c2ncccc12.[Na+]` [APL-1072, Nitroxoline Sodium Salt] the solubility at 30 min [1, 4] was 1000 to 10000 µg/mL, the solubility at 30 min [1, 5] was less than 100 µg/mL and the solubility at 30 min [1, 6] was less than 100 µg/mL. For the same molecule, the solubility at 30 min [1, 7] was less than 100 µg/mL, the solubility at 30 min [1, 8] was less than 100 µg/mL and the solubility at 30 min [1, 9] was less than 100 µg/mL. For the same molecule, the solubility at 30 min [1, 10] was less than 100 µg/mL, the solubility at 30 min [1, 11] was less than 100 µg/mL and the “solubility at a physiologically relevant pH” value [1] was “significantly improved solubility”.

— patent publication US9758484B2 (Asieris Pharmaceutical Technologies Co., Ltd., priority 2013, dated 2017)
